Experimental data reported in ChEMBL document CHEMBL5223188, “Discovery of OICR12694: A Novel, Potent, Selective, and Orally Bioavailable BCL6 BTB Inhibitor” (ACS Med Chem Lett, 2023).

How the values were obtained:
[1] = in vitro; conditions: mouse, liver microsomes
[2] = in vitro; conditions: human, Caco-2
[3] = in vitro; conditions: human, liver microsomes

With `C[C@H]1COCCN1c1cc(NC(=O)Cn2cc(-c3cc(Cl)c(O)c(C(N)=O)c3)c3c(=O)n(C)cnc32)c(Cl)cn1` the remaining at 1 h [1] was 63%, the Papp A→B [2] was 3.6 ×10⁻⁶ cm/s and the remaining at 1 h [3] was 27%.

In the case of `C[C@H]1CN(C)CCN1c1cc(NC(=O)Cn2cc(-c3cc(F)c(O)c(C(N)=O)c3F)c3c(=O)n(C)cnc32)c(Cl)c(F)n1`, the remaining at 1 h [1] is reported as 43%, the Papp A→B [2] is reported as 2.8 ×10⁻⁶ cm/s and the remaining at 1 h [3] is reported as 16%.

Work on `Cc1nc2c(c(-c3cc(C(N)=O)c(O)c(F)c3F)cn2CC(=O)Nc2cc(N3CCN(C)C[C@@H]3C)ncc2Cl)c(=O)n1C` yielded a remaining at 1 h [1] of 65%, a Papp A→B [2] of 4.4 ×10⁻⁶ cm/s and a remaining at 1 h [3] of 73%.

In the case of `C[C@H]1CN(C)CCN1c1cc(NC(=O)Cn2cc(-c3cc(F)c(O)c(C(N)=O)c3)c3c(=O)n(C)cnc32)c(Cl)cn1`, the remaining at 1 h [1] is reported as 49%, the Papp A→B [2] is reported as 0.5 ×10⁻⁶ cm/s and the remaining at 1 h [3] is reported as 62%.

For `C[C@@H]1COCCN1c1cc(NC(=O)Cn2cc(-c3cc(Cl)c(O)c(C(N)=O)c3)c3c(=O)n(C)cnc32)c(Cl)cn1`, the remaining at 1 h [1] was 36%, the Papp A→B [2] was 3 ×10⁻⁶ cm/s and the remaining at 1 h [3] was 55%.
